Patent US10206904B2, “Licofelone derivatives and methods of use” (The Board of Regents of the University of Oklahoma, priority 2015, dated 2019)
Values joined by “and” are separate entries in the source; they are usually repeats but may differ in a detail not shown here. Equal entries are not always repeated. Where two headings read alike, the source gives them in different places.

Test system: AOM-induced colon tumors
Conditions: AOM-treated male F344 rats
Description: After 42 weeks of experimental diet feeding and total 52 weeks of experimental duration, the rats were necropsied. After necropsy of the rats, the colonic tumors were analyzed histologically. Histopathological evaluation colonic tumor has been completed by two pathologists independently. Colonic tumors were histopathologically classified to adenomas or adenocarcinomas either exophytic (non-invasive) or endophytic (invasive).
Colonic tumors (CTs) were induced by colon specific carcinogen, azoxymethane (AOM) (15 mg/kg by wt, once weekly for 2 weeks) in F344 rats at 8 weeks' age. […] Rats were killed by CO2 asphyxiation 36 weeks after second AOM and the colons were removed, rinsed in PBS, opened longitudinally, and flattened on a filter paper. The location and size of each tumor were noted. Tumors were removed, snap frozen, or fixed in 10% buffered formalin for 24 hours and transferred to 80% ethanol for histopathological analysis. The number and type of colon tumors (adenoma and adenocarcinoma) were analyzed histologically blinded to treatment groups and compared with control diet fed rat colonic tumors.

`CC1(C)Cc2c(-c3ccccc3)c(-c3ccc(Cl)cc3)c(CC(=O)NCC(=O)O)n2C1` [LFA-9, licofelone-glycine] was tested, and the “% AdCA Inhibition (incidence)” value (200 ppm in diet) was 60%, the “% AdCA Inhibition (multiplicity)” value (200 ppm in diet) was 77% and the “% Inv AdCA Inhibition (incidence)” value (200 ppm in diet) was 85.1%. The “% Inv AdCA Inhibition (multiplicity)” value (200 ppm in diet) was 86.0%, the “% Non-Inv AdCA Inhibition (incidence)” value (200 ppm in diet) was 63.0% and the “% Non-Inv AdCA Inhibition (multiplicity)” value (200 ppm in diet) was 72.9%. The “% adenoma Inhibition (incidence)” value (200 ppm in diet) was 53%, the “% adenoma Inhibition (multiplicity)” value (200 ppm in diet) was 38.3% and 38.27% and the “% of CRC Tumor Inhibition (incidence)” value (200 ppm in diet) was 47.5%. For the same molecule, the “% of CRC Tumor Inhibition (multiplicity)” value (200 ppm in diet) was 64% and 64.05%, the “AdCA Incidence (% Rats with AdCa)” value (200 ppm in diet) was “(33.3%)” and the “AdCA Incidence (rats with AdCa/rats)” value (200 ppm in diet) was 10/30. The “AdCA Multiplicity (Mean ± SEM)” value (200 ppm in diet) was 0.37±0.07 Tumors/Rat, the “Adenoma Incidence (% Rats with Adenomas)” value (200 ppm in diet) was “(30.0%)” and the “Adenoma Incidence (rats with adenomas/rats)” value (200 ppm in diet) was 9/30. For the same molecule, the “Adenoma Multiplicity (Mean ± SEM)” value (200 ppm in diet) was 0.50±0.07 Tumors/Rat, the “Invasive AdCA Incidence (% Rats with Invasive AdCa)” value (200 ppm in diet) was “(6.66%)” and the “Invasive AdCA Incidence (rats with Invasive AdCa/rats)” value (200 ppm in diet) was 2/30. For the same molecule, the “Invasive AdCA Multiplicity (Mean ± SEM)” value (200 ppm in diet) was 0.07 ± 0.02 Tumors/Rat, the “Multiplicity Total CRC Tumors (Adenoma + AdCa) (Mean ± SEM)” value (200 ppm in diet) was 0.87 ± 0.12 Tumors/Rat and the “Non-Inv AdCa Incidence (% Rats with Non-Inv AdCa)” value (200 ppm in diet) was “(26.7%)”. For the same molecule, the “Non-Inv AdCa Incidence (rats with Non-Inv AdCa/rats)” value (200 ppm in diet) was 8/30, the “Non-Inv AdCa Multiplicity (Mean ± SEM)” value (200 ppm in diet) was 0.30 ± 0.05 Tumors/Rat and the “Total CRC Tumors (Adenoma + AdCa) incidence (% rats)” value (200 ppm in diet) was “(46.6%)”. The “Total CRC Tumors (Adenoma + AdCa) incidence (rats with tumors/rats)” value (200 ppm in diet) was 14/30, the “% AdCA Inhibition (incidence)” value (400 ppm in diet) was 67.9% and the “% AdCA Inhibition (multiplicity)” value (400 ppm in diet) was 81.3%. The “% Inv AdCA Inhibition (incidence)” value (400 ppm in diet) was 77.4%%, the “% Inv AdCA Inhibition (multiplicity)” value (400 ppm in diet) was 80.0% and the “% Non-Inv AdCA Inhibition (incidence)” value (400 ppm in diet) was 72.3%. The “% Non-Inv AdCA Inhibition (multiplicity)” value (400 ppm in diet) was 82.0%, the “% adenoma Inhibition (incidence)” value (400 ppm in diet) was 53% and the “% adenoma Inhibition (multiplicity)” value (400 ppm in diet) was 46.9%. For the same molecule, the “% of CRC Tumor Inhibition (incidence)” value (400 ppm in diet) was 55.5% and 55.0%, the “% of CRC Tumor Inhibition (multiplicity)” value (400 ppm in diet) was 69.1% and 69.08% and the “AdCA Incidence (% Rats with AdCa)” value (400 ppm in diet) was “(26.7%)”. The “AdCA Incidence (rats with AdCa/rats)” value (400 ppm in diet) was 8/30, the “AdCA Multiplicity (Mean ± SEM)” value (400 ppm in diet) was 0.30±0.07 Tumors/Rat and the “Adenoma Incidence (% Rats with Adenomas)” value (400 ppm in diet) was “(30.0%)”. The “Adenoma Incidence (rats with adenomas/rats)” value (400 ppm in diet) was 9/30, the “Adenoma Multiplicity (Mean ± SEM)” value (400 ppm in diet) was 0.43±0.06 Tumors/Rat and the “Invasive AdCA Incidence (% Rats with Invasive AdCa)” value (400 ppm in diet) was “(10.0%)”. For the same molecule, the “Invasive AdCA Incidence (rats with Invasive AdCa/rats)” value (400 ppm in diet) was 3/30, the “Invasive AdCA Multiplicity (Mean ± SEM)” value (400 ppm in diet) was 0.10 ± 0.02 Tumors/Rat and the “Multiplicity Total CRC Tumors (Adenoma + AdCa) (Mean ± SEM)” value (400 ppm in diet) was 0.73 ± 0.10 Tumors/Rat. The “Non-Inv AdCa Incidence (% Rats with Non-Inv AdCa)” value (400 ppm in diet) was “(20.0%)”, the “Non-Inv AdCa Incidence (rats with Non-Inv AdCa/rats)” value (400 ppm in diet) was 6/30 and the “Non-Inv AdCa Multiplicity (Mean ± SEM)” value (400 ppm in diet) was 0.20 ± 0.04 Tumors/Rat. For the same molecule, the “Total CRC Tumors (Adenoma + AdCa) incidence (% rats)” value (400 ppm in diet) was “(40.0%)”, the “Total CRC Tumors (Adenoma + AdCa) incidence (rats with tumors/rats)” value (400 ppm in diet) was 12/30 and the “% AdCA Inhibition (incidence)” value (800 ppm in diet) was 76%. The “% AdCA Inhibition (multiplicity)” value (800 ppm in diet) was 85.7%, the “% Inv AdCA Inhibition (incidence)” value (800 ppm in diet) was 92.5% and the “% Inv AdCA Inhibition (multiplicity)” value (800 ppm in diet) was 94.0%. For the same molecule, the “% Non-Inv AdCA Inhibition (incidence)” value (800 ppm in diet) was 72.3%, the “% Non-Inv AdCA Inhibition (multiplicity)” value (800 ppm in diet) was 82.0% and the “% adenoma Inhibition (incidence)” value (800 ppm in diet) was 58.2%. The “% adenoma Inhibition (multiplicity)” value (800 ppm in diet) was 42%, the “% of CRC Tumor Inhibition (incidence)” value (800 ppm in diet) was 47.5% and the “% of CRC Tumor Inhibition (multiplicity)” value (800 ppm in diet) was 71.1% and 71.07%. The “AdCA Incidence (% Rats with AdCa)” value (800 ppm in diet) was “(20.0%)”, the “AdCA Incidence (rats with AdCa/rats)” value (800 ppm in diet) was 6/30 and the “AdCA Multiplicity (Mean ± SEM)” value (800 ppm in diet) was 0.23±0.05 Tumors/Rat. The “Adenoma Incidence (% Rats with Adenomas)” value (800 ppm in diet) was “(26.7%)”, the “Adenoma Incidence (rats with adenomas/rats)” value (800 ppm in diet) was 8/30 and the “Adenoma Multiplicity (Mean ± SEM)” value (800 ppm in diet) was 0.47±0.06 Tumors/Rat. For the same molecule, the “Invasive AdCA Incidence (% Rats with Invasive AdCa)” value (800 ppm in diet) was “(3.33%)”, the “Invasive AdCA Incidence (rats with Invasive AdCa/rats)” value (800 ppm in diet) was 1/30 and the “Invasive AdCA Multiplicity (Mean ± SEM)” value (800 ppm in diet) was 0.03 ± 0.01 Tumors/Rat. The “Multiplicity Total CRC Tumors (Adenoma + AdCa) (Mean ± SEM)” value (800 ppm in diet) was 0.70 ± 0.10 Tumors/Rat, the “Non-Inv AdCa Incidence (% Rats with Non-Inv AdCa)” value (800 ppm in diet) was “(20.0%)” and the “Non-Inv AdCa Incidence (rats with Non-Inv AdCa/rats)” value (800 ppm in diet) was 6/30.
